The text below walks through data of paper PMC4320118, “Micheliolide Derivative DMAMCL Inhibits Glioma Cell Growth In Vitro and In Vivo” (PLoS ONE, 2015).

Like-named read-outs stand apart in the source and are kept apart here.

This experiment has as its system U-87MG cells. Put plainly: Cell proliferation MTT assay, U-87MG. Type of experiment: cell-based. The conditions noted are these: Homo sapiens, 72 h. As to the method:
C6 and U-87MG cell lines were obtained from the American Type Culture Collection (ATCC) and cultured in our laboratory. Rat C6 glioma cells were cultured in F12K nutrient medium (Gibco, Grand Island, […]) supplemented with 15% horse serum (Auckland, NZ), 2.5% fetal bovine serum (FBS), 100 U/mL penicillin, and […] streptomycin (Gibco, Paisley, Scotland, UK). Human U-87MG cells were cultured in minimum essential medium (MEM) supplemented with 10% FBS, 1% nonessential amino acids, 100 U/mL penicillin, and […] streptomycin. Cells were cultured under a humidified atmosphere containing 5% CO2 at 37°C, and medium was changed every 1 to 2 days.
Tumor cells were seeded in 96-well plates at a density of 3500 cells/well. After 24 h in culture, cells were exposed to different concentrations of DMAMCL or medium alone (control) for 72 h. Cell viability was determined by MTT assays. Briefly, MTT regent (0.5 mg/mL) was added to wells, and cells were incubated for 4 h at 37°C. After removing the supernatant, 200 μL of dimethyl sulfoxide (DMSO) (Fluka, Switzerland) was added to dissolve formazan crystals. The absorbance at 570 nm was measured by a microplate reader (Thermo Labsystems, Helsinki, Finland). Control absorbance was taken as 100%. The absorbance of DMAMCL-treated cells was taken as percentage survival. […]
A general note: Formazan colour is commonly taken as a measure of viable cells.

Regarding `CC1=C2CC[C@@](C)(O)[C@@H]2[C@H]2OC(=O)[C@@H](CN(C)C)[C@@H]2CC1` [DMAMCL, dimethylaminomicheliolide], the IC50 reads like this: (read-out: IC50) 20.6 ± 1.61 µM; (read-out: x0 (midpoint of logistic fit, Fig 3B) (converted)) 20.6 ± 1.6 µM.
